Where two headings read alike, the source gives them in different places.
Columns and labels:
human VR1 = molecular target: T1, human VR1 (Homo sapiens, UniProt Q8NER1); assay: Capsaicin-induced Ca2+ influx in the human VR1-transfected CHO cell line (Assay 1); format: cell-based
T1 construct: The cloned hVR1 cDNA was constructed with pcDNA3 vector and transfected into a CHOluc9aeq cell line; expressed in transfected cells
Excerpt: [Measurement of Capsaicin-Induced Ca^2+ Influx in the Human VR1-Transfected CHO Cell Line] (Assay 1)
(1) Establishment of the Human VR1-CHOluc9aeq Cell Line
Human vanilloid receptor (hVR1) cDNA was cloned from libraries of axotomized dorsal root ganglia (WO2000/29577). The cloned hVR1 cDNA was constructed with pcDNA3 vector and transfected into a CHOluc9aeq cell line. The cell line contains aequorin and CRE-luciferase reporter genes as read-out signals. The transfectants were cloned by limiting dilution in selection medium (DMEM/F12. medium (Gibco BRL) supplemented with 10% FCS, 1.4 mM Sodium pyruvate, 20 mM HEPES, 0.15% Sodium bicarbonate, 100 U/ml penicillin, 100 μg/ml strept mycin, 2 mM glutamine, non-essential amino acids and 2 mg/ml G418). Ca^2+ influx was examined in the capsaicin-stimulated clones. A high responder clone was selected and used for further experiments in the project. The human VR1-CHOluc9aeq cells were maintained in the selection medium and passaged every 3-4 days at 1-2.5×10^5 cells/flask ([…]).
(2) Measurement of Ca^2+ Influx Using FDSS-3000
Human VR1-CHOluc9aeq cells were suspended in a culture medium which is the same as the selection medium except for G418 and seeded at a density of 1,000 cells per well into 384-well plates (black walled clear-base/Nalge Nunc International). Following the culture for 48 hrs the medium was changed to 2 μM Fluo-3 AM (Molecular Probes) and 0.02% Puronic F-127 in assay buffer (Hank's balanced salt solution (HBSS), 17 mM HEPES (pH7.4), 1 mM Probenecid, 0.1% BSA) and the cells were incubated for 60 min at 25° C. After washing twice with assay buffer the cells were incubated with a test compound or vehicle for 20 min at 25° C. Mobilization of cytoplasmic Ca^2+ was measured by FDSS-3000 (λex=488 nm, λem=540 nm/Hamamatsu Photonics) for 60 sec after the stimulation with 10 nM capsaicin. Integral R was calculated and compared with controls.
The data corresponds to the compounds as yielded by solid phase synthesis and thus to levels of purity of about 40 to 90%.

T1 sequence (Q8NER1 whole entry): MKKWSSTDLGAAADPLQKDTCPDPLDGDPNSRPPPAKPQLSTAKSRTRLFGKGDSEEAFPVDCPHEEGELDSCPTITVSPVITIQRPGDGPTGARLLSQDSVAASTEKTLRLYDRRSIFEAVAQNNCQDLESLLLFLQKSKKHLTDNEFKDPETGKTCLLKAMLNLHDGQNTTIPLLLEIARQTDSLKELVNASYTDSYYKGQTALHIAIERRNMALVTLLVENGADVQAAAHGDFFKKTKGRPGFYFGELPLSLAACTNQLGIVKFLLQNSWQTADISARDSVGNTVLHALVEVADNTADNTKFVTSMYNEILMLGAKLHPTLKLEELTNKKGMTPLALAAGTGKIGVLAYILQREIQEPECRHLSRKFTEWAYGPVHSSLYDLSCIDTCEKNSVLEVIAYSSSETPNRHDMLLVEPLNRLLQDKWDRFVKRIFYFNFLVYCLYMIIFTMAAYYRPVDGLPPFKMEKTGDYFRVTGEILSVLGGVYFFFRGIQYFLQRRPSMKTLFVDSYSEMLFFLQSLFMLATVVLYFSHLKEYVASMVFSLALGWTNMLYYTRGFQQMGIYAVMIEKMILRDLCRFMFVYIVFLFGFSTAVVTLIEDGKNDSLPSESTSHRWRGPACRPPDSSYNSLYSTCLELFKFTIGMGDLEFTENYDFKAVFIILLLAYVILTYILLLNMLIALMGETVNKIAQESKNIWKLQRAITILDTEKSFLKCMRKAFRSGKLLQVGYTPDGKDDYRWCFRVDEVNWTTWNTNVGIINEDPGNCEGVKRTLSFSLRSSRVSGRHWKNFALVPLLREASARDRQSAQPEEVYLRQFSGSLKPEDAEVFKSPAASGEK

Row | IC50 (human VR1; read-out: Activity grade) | melting point | IC50 (human VR1; read-out: hVR1 class) | Compound
1 | < 100 nM | 225 to 228 °C |  | O=C(Nc1ccc(Cl)c(C(F)(F)F)c1)Nc1ccc2ncsc2c1 [Example 1, N-(1,3-benzothiazol-6-yl)-N′-[4-chloro-3-(trifluoromethyl)phenyl]urea]
2 | < 100 nM | 213 to 215 °C |  | O=C(Nc1cccc(-c2ccccc2)c1)Nc1cccc2[nH]ccc12 [Example 2, N-(1,1′-biphenyl-3-yl)-N′-(1H-indol-4-yl)urea]
3 |  | > 250 °C | < 100 nM | O=C(Nc1ccc(Cl)c(C(F)(F)F)c1)Nc1ccc2[nH]ncc2c1 [Example 3]
4 |  | 232 to 235 °C | 100 to 500 nM | O=C(Nc1ccc(Cl)c(C(F)(F)F)c1)Nc1cccc2[nH]nnc12 [Example 4]
5 |  | 234 to 235 °C | 100 to 500 nM | O=C(Nc1ccc(Cl)c(C(F)(F)F)c1)Nc1ccc2[nH]ccc2c1 [Example 5]
6 |  | 245 to 248 °C | 100 to 500 nM | O=C(Nc1ccc(Cl)c(C(F)(F)F)c1)Nc1ccc2cc[nH]c2c1 [Example 6]
7 |  | 229 to 233 °C | < 100 nM | O=C(Nc1ccc(Cl)c(C(F)(F)F)c1)Nc1cccc2cc[nH]c12 [Example 7]
8 |  | 230 to 233 °C | < 100 nM | O=C(Nc1ccc(Cl)c(C(F)(F)F)c1)Nc1cccc2[nH]ccc12 [Example 8]
9 |  | 165 to 169 °C | < 100 nM | O=C(Nc1ccc(Cl)c(C(F)(F)F)c1)Nc1cccc2[nH]c(C(F)(F)F)nc12 [Example 9]
10 |  | > 250 °C | 100 to 500 nM | O=C(Nc1ccc(Cl)c(C(F)(F)F)c1)Nc1ccc2[nH]nnc2c1 [Example 10]
11 |  | 205 to 208 °C | < 100 nM | O=C(NCc1ccc(Br)cc1)Nc1cccc2cc[nH]c12 [Example 11]
12 |  | 216 to 218 °C | 100 to 500 nM | O=C(Nc1ccc(Oc2ccccc2)cc1)Nc1cccc2cc[nH]c12 [Example 12]
13 |  |  | < 100 nM | O=C(Nc1ccc(Cl)c(C(F)(F)F)c1)Nc1ccc2c(c1)S(=O)(=O)C=C2 [Example 13]
14 |  | 236 to 238 °C | 100 to 500 nM | CSc1nc2ccc(NC(=O)Nc3ccc(Cl)c(C(F)(F)F)c3)cc2s1 [Example 14]
15 |  | 234 to 235 °C | 100 to 500 nM | Cc1nc2ccc(NC(=O)Nc3ccc(Cl)c(C(F)(F)F)c3)cc2s1 [Example 15]
16 |  | 152 to 155 °C | < 100 nM | Cc1nc2cc(NC(=O)Nc3ccc(Cl)c(C(F)(F)F)c3)ccc2s1 [Example 16]
17 |  | > 250 °C | 100 to 500 nM | O=C(Nc1ccc2c(c1)C(=O)OC2)Nc1ccc(Cl)c(C(F)(F)F)c1 [Example 17]
18 |  | > 250 °C | 500 to 1000 nM | O=C(Nc1ccc(Cl)c(C(F)(F)F)c1)Nc1ccc2[nH]c(=S)sc2c1 [Example 18]
19 |  | > 250 °C | 500 to 1000 nM | O=C(Cc1ccc(Cl)c(C(F)(F)F)c1)Nc1ccc2cn[nH]c2c1 [Example 19]
20 |  | 200 to 202 °C | < 100 nM | Cc1cccc(NC(=O)Nc2ccc3sc(C)nc3c2)c1 [Example 20]

Row | IC50 (human VR1; read-out: Activity grade) | melting point | IC50 (human VR1; read-out: hVR1 class) | Compound
21 |  | 225 to 227 °C | 100 to 500 nM | CSc1cccc(NC(=O)Nc2ccc3sc(C)nc3c2)c1 [Example 21]
22 |  | 241 to 242 °C | < 100 nM | Cc1nc2cc(NC(=O)Nc3ccc(F)cc3)ccc2s1 [Example 22]
23 |  | 229 to 231 °C | < 100 nM | Cc1nc2cc(NC(=O)Nc3cccc(C(F)(F)F)c3)ccc2s1 [Example 23]
24 |  | 199 to 201 °C | 100 to 500 nM | COc1cccc(NC(=O)Nc2ccc3sc(C)nc3c2)c1 [Example 24]
25 |  | 228 to 229 °C | < 100 nM | Cc1nc2cc(NC(=O)Nc3ccc(Oc4ccccc4)cc3)ccc2s1 [Example 25]
26 |  | > 250 °C | < 100 nM | Cc1nc2cc(NC(=O)Nc3ccc(Br)cc3)ccc2s1 [Example 26]
27 |  | > 250 °C | < 100 nM | Cc1nc2cc(NC(=O)Nc3ccc4ccccc4c3)ccc2s1 [Example 27]
28 |  | 215 to 217 °C | 100 to 500 nM | COc1ccc(NC(=O)Nc2ccc3sc(C)nc3c2)cc1 [Example 28]
29 |  |  | < 100 nM | Cc1nc2cc(NC(=O)Nc3ccc(Cl)c(Cl)c3)ccc2s1 [Example 29]
30 |  | 243 to 244 °C | < 100 nM | Cc1nc2cc(NC(=O)Nc3ccc(F)cc3F)ccc2s1 [Example 30]
31 |  | 230 to 232 °C | < 100 nM | Cc1nc2cc(NC(=O)Nc3ccc(C)c(Cl)c3)ccc2s1 [Example 31]
32 |  | 240 to 241 °C | < 100 nM | Cc1nc2cc(NC(=O)Nc3cc(C(F)(F)F)ccc3Cl)ccc2s1 [Example 32]
33 |  | 237 to 239 °C | 100 to 500 nM | Cc1cccc(NC(=O)Nc2cccc3[nH]ccc23)c1 [Example 33]
34 |  | 198 to 201 °C | 100 to 500 nM | CSc1cccc(NC(=O)Nc2cccc3[nH]ccc23)c1 [Example 34]
35 |  | 239 to 241 °C | 100 to 500 nM | O=C(Nc1ccc(F)cc1)Nc1cccc2[nH]ccc12 [Example 35]
36 |  | 219 to 221 °C | 100 to 500 nM | COc1cccc(NC(=O)Nc2cccc3[nH]ccc23)c1 [Example 36]
37 |  | 212 to 214 °C | 100 to 500 nM | O=C(Nc1ccc(Oc2ccccc2)cc1)Nc1cccc2[nH]ccc12 [Example 37]
38 |  | 219 to 222 °C | 500 to 1000 nM | Cc1cccc(NC(=O)Nc2ccc3c(c2)S(=O)(=O)C=C3)c1 [Example 38]
39 |  | 208 to 210 °C | < 100 nM | Cc1nc2cc(NC(=O)Nc3ccc(C(C)C)cc3)ccc2s1 [Example 39]
40 |  | > 250 °C | < 100 nM | Cc1nc2cc(NC(=O)Nc3cccc4ccccc34)ccc2s1 [Example 40]

Row | IC50 (human VR1; read-out: Activity grade) | melting point | IC50 (human VR1; read-out: hVR1 class) | Compound
41 |  | 211 to 213 °C | < 100 nM | O=C(Nc1cccc(C(F)(F)F)c1)Nc1cccc2[nH]ccc12 [Example 41]
42 |  | 212 to 213 °C | 100 to 500 nM | CSc1cccc(NC(=O)Nc2ccc3c(c2)S(=O)(=O)C=C3)c1 [Example 42]
43 |  | 242 to 243 °C | 500 to 1000 nM | O=C(Nc1ccc(F)cc1)Nc1ccc2c(c1)S(=O)(=O)C=C2 [Example 43]
44 |  | > 250 °C |  | O=C(Nc1cccc(C(F)(F)F)c1)Nc1ccc2c(c1)S(=O)(=O)C=C2 [Example 44]
45 |  | 206 to 208 °C | 500 to 1000 nM | COc1cccc(NC(=O)Nc2ccc3c(c2)S(=O)(=O)C=C3)c1 [Example 45]
46 |  | 204 to 206 °C | 100 to 500 nM | O=C(Nc1cccc(-c2ccccc2)c1)Nc1ccc2[nH]ccc2c1 [Example 46]
47 |  |  | 100 to 500 nM | Cc1nc2cc(NC(=O)Nc3cccc(-c4ccc(Cl)cc4)c3)ccc2s1 [Example 47]
48 |  | 162 to 166 °C | 500 to 1000 nM | Cc1nc2cc(NC(=O)Nc3ccc(Cl)c(C(F)(F)F)c3)ccc2[nH]1 [Example 48]
49 |  | 243 to 245 °C | 500 to 1000 nM | Cc1nc2cc(NC(=O)Nc3ccc(Oc4ccccc4)cc3)ccc2[nH]1 [Example 49]
50 |  | > 250 °C | 500 to 1000 nM | Cc1nc2cc(NC(=O)Nc3ccc(C(C)C)cc3)ccc2[nH]1 [Example 50]
51 |  | 200 to 204 °C | 500 to 1000 nM | Cc1nc2cc(NC(=O)Nc3ccc(C)c(Cl)c3)ccc2[nH]1 [Example 51]
52 |  | > 250 °C | 500 to 1000 nM | Cc1nc2cc(NC(=O)Nc3ccc(Br)cc3)ccc2[nH]1 [Example 52]
53 |  | 189 to 191 °C | < 100 nM | Cc1nc2c(NC(=O)Nc3ccc(Cl)c(C(F)(F)F)c3)cccc2[nH]1 [Example 53]
54 |  | 223 to 225 °C | < 100 nM | Cc1nc2c(NC(=O)Nc3ccc(Oc4ccccc4)cc3)cccc2[nH]1 [Example 54]
55 |  | 216 to 218 °C | 100 to 500 nM | Cc1nc2c(NC(=O)Nc3ccc(C(C)C)cc3)cccc2[nH]1 [Example 55]
56 |  | 216 to 219 °C | 100 to 500 nM | Cc1nc2cc(NC(=O)Nc3cccc(-c4ccccc4)c3)ccc2s1 [Example 56]
57 |  |  | 500 to 1000 nM | Cc1cccc(NC(=O)Nc2ccc3[nH]ncc3c2)c1 [Example 103]
58 |  |  | 500 to 1000 nM | O=C(Nc1ccc(Cl)c(C(F)(F)F)c1)Nc1ccc2[nH]c(C(F)(F)F)nc2c1 [Example 104]
59 |  |  | 500 to 1000 nM | O=C(NCc1ccc(Br)cc1)Nc1cccc2[nH]c(C(F)(F)F)nc12 [Example 105]
60 |  |  | 100 to 500 nM | O=C(Nc1ccc(Oc2ccccc2)cc1)Nc1cccc2[nH]c(C(F)(F)F)nc12 [Example 106]

— patent US20050119304A1, “Urea derivatives” (priority 2001, published 2005)
